Experimental data taken from patent publication US4225619A, “Substituted fluoracylresorcinols” (Boehringer Ingelheim GmBH, priority 1976, dated 1980).
≈ marks a conversion by molar mass, not a printed value.

What follows are molecules tested on Pityrosporum ovale CBS 1878 (assay: Agar diffusion test for Pityrosporum ovale CBS 1878). Conditions: Malassezia furfur, CBS1878, 168 h, 7 days at 27° C., read-out: MIC, A.D.T., Pityrosporum ovale.
Format: cell-based
Description: Agar diffusion test for Pityrosporum ovale CBS 1878 Nutrient medium
Littmann's agar, 23 ml per Petri dish, diameter of dish 100 mm.
Suspension of microorganisms in 0.9% sodium chloride solution, standardized using a photometer according to Eppendorf by means of a suspension for comparison consisting of barium sulfate. 0.05 ml per plate were used. The test substances were dissolved in dimethyl sulfoxide. The incubation time was 7 days at 27° C.; the area of inhibition in mm was measured, 0.05 ml of the solution of the substance were used for each punch-hole of a diameter of 6 mm. The results of these tests are recorded in the following tables 1 and 2: […]

MIC [mg/L]	Structure (SMILES)
1000 (≈ 4.85 mM)	O=C(c1ccc(O)cc1O)C(F)(F)F [A, 2,4-Dihydroxy-trifluoroacetophenone, reference compound]
1000 (≈ 4.27 mM)	CCc1cc(C(=O)C(F)(F)F)c(O)cc1O [B, 5-Ethyl-2,4-dihydroxy-trifluoroacetophenone, reference compound]
1000 (≈ 4.27 mM)	CCc1c(O)ccc(C(=O)C(F)(F)F)c1O [C, 3-Ethyl-2,4-dihydroxy-trifluoroacetophenone, reference compound]
> 4000	COc1ccc(C(=O)C(F)(F)F)c(OC)c1 [D, 2,4-Dimethoxy-trifluoroacetophenone, reference compound]
250 (≈ 0.953 mM)	CC(C)Cc1c(O)ccc(C(=O)C(F)(F)F)c1O [F, 2,4-Dihydroxy-3-iso-butyl-trifluoroacetophenone]
1000 (≈ 3.31 mM)	CC1CCC(c2c(O)ccc(C(=O)C(F)(F)F)c2O)CC1 (stereo not drawn) [H, 2,4-Dihydroxy-3-(4'-methyl)-cyclohexyl-trifluoro-acetophenone]
